Test results published in article PMC7026418, “The kinase polypharmacology landscape of clinical PARP inhibitors” (Scientific Reports, 2020).
Where two headings read alike, the source gives them in different places. Values belong to the molecule of their own block, whether it stands above or below them.

Experiments:
Assay in all cases: biochemical
Parameters in all cases: DiscoveRx KINOMEscan active site-directed competition binding; percent of control kinase bound to immobilised ligand
[1] = target: SRPK2 (Homo sapiens, UniProt P78362)
[2] = target: T1, YANK2 (Homo sapiens, UniProt Q9NY57)
T1 construct: gene STK32B

[3] = target: T2, RPS6KA5(Kin.Dom.1-N-terminal) (Homo sapiens, UniProt O75582)
T2 construct: Kin.Dom.1-N-terminal

[4] = target: T3, ERK4 (Homo sapiens, UniProt P31152)
T3 construct: gene MAPK4

[5] = target: FGFR3(G697C) (Homo sapiens, UniProt P22607, G697C)
[6] = target: T4, RIOK1 (Homo sapiens, UniProt Q9BRS2)
T4 sequence (Q9BRS2 1-568): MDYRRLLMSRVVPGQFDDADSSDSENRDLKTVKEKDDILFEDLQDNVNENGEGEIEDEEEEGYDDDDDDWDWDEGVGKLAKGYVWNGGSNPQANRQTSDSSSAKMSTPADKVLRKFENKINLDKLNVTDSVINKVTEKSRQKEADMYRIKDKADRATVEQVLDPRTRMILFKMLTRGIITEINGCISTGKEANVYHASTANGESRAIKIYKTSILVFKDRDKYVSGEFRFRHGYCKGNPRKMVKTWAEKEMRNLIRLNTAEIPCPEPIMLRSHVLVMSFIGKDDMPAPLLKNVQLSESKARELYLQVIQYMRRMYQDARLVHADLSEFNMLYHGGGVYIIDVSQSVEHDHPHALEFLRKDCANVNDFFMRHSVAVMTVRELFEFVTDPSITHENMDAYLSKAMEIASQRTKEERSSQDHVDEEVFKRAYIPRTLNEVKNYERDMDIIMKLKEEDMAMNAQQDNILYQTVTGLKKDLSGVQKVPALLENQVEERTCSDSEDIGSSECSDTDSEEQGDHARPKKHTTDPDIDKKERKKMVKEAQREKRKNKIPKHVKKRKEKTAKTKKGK

[7] = target: T5, LKB1 (Homo sapiens, UniProt Q15831)
T5 construct: gene STK11
T5 sequence (Q15831 1-433): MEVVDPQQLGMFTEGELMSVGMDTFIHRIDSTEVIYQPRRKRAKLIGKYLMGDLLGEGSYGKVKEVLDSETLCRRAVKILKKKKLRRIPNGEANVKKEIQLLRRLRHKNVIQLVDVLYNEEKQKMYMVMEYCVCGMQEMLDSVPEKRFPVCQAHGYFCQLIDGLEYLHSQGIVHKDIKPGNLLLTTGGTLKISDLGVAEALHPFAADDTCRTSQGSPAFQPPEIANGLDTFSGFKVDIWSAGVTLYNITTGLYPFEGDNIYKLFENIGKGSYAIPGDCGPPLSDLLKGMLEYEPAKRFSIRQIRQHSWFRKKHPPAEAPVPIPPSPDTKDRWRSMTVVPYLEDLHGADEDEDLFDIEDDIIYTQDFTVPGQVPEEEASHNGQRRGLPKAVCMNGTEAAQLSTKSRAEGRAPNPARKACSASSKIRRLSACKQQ

[8] = target: T6, MAP3K2 (Homo sapiens, UniProt Q9Y2U5)
T6 sequence (Q9Y2U5 1-619): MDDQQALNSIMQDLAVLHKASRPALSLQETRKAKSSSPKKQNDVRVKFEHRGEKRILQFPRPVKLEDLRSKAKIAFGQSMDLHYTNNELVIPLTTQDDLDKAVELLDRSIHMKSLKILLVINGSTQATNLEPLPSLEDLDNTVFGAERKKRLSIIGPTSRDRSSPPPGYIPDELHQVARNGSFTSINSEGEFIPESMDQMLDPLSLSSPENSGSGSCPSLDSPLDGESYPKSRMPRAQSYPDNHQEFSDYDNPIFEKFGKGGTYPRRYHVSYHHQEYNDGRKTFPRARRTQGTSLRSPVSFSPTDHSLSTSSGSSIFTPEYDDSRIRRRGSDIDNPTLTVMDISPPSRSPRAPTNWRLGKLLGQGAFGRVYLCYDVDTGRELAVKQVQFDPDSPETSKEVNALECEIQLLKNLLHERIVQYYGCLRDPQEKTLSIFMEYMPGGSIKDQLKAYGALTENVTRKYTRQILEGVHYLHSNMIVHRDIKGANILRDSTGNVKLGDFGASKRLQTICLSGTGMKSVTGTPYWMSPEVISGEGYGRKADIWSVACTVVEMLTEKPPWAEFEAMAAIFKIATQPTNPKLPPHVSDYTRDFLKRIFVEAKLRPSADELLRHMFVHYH

[9] = target: MELK (Homo sapiens, UniProt Q14680)
[10] = target: ERN1 (Homo sapiens, UniProt O75460)
[11] = read-out: Olaparib / %Ctrl @ 10000nM
[12] = read-out: Talazoparib (BMN 673) / %Ctrl @ 10000nM
[13] = read-out: Rucaparib / %Ctrl @ 10000nM, binding competition, % of control
[14] = read-out: Niraparib (MK-4827) / %Ctrl @ 10000nM

Chain of SRPK2 (P78362 whole entry): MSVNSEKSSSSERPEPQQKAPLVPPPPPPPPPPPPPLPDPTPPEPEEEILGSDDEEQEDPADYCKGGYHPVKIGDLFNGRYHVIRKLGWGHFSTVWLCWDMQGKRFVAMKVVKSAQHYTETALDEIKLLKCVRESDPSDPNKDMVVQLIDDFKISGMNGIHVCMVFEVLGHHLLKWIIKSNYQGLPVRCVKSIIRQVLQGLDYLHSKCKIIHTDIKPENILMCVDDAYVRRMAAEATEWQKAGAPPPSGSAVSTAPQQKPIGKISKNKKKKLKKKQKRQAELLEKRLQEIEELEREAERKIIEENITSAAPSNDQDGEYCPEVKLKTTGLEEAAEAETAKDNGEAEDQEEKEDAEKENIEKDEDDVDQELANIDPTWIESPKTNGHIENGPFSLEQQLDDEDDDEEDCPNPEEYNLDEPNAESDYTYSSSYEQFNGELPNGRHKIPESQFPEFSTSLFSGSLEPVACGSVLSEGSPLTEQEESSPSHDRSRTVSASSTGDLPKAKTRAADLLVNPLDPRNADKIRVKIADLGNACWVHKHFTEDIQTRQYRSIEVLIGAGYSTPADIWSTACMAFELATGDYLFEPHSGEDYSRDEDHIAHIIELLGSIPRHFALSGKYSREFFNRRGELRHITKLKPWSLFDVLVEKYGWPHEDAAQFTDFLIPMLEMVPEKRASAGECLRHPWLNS
Chain of MELK (Q14680 whole entry): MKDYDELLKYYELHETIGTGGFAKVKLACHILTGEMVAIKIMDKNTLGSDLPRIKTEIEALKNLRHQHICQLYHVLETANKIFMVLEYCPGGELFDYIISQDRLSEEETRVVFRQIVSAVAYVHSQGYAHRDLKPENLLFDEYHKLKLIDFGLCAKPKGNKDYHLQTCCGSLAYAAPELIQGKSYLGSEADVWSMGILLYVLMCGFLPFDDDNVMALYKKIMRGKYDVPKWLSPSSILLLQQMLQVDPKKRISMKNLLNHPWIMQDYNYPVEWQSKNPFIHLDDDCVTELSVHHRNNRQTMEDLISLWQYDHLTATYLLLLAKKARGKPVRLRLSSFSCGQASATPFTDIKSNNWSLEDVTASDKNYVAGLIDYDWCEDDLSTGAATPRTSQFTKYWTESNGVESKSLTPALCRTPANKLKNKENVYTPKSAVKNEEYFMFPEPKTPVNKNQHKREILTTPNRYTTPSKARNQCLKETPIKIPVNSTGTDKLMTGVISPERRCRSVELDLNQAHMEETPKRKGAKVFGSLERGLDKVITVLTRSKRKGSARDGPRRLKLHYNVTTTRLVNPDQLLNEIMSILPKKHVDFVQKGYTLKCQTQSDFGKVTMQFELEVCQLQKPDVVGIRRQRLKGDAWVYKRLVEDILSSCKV
T2 sequence (O75582 whole entry): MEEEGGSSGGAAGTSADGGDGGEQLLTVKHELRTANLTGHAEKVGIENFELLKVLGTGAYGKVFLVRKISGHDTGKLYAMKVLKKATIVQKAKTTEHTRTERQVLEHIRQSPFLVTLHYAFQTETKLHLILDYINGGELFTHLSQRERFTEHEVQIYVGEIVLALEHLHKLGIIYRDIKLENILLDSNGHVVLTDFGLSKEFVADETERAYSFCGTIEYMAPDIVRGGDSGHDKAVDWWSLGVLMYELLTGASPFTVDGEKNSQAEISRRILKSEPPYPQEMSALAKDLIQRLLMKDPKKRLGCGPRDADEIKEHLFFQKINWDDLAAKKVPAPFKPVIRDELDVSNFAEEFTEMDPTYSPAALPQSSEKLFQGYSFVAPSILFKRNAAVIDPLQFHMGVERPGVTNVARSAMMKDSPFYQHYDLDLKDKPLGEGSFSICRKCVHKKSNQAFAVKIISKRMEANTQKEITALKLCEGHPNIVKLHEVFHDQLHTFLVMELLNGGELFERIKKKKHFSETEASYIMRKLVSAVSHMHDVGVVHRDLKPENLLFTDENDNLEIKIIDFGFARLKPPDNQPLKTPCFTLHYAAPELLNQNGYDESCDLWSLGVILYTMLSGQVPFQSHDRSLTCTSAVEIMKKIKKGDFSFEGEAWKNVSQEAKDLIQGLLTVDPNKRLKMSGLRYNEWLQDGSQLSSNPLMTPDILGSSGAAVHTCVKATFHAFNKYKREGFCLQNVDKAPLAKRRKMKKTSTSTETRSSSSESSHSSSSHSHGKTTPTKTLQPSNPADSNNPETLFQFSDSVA
Chain of ERN1 (O75460 whole entry): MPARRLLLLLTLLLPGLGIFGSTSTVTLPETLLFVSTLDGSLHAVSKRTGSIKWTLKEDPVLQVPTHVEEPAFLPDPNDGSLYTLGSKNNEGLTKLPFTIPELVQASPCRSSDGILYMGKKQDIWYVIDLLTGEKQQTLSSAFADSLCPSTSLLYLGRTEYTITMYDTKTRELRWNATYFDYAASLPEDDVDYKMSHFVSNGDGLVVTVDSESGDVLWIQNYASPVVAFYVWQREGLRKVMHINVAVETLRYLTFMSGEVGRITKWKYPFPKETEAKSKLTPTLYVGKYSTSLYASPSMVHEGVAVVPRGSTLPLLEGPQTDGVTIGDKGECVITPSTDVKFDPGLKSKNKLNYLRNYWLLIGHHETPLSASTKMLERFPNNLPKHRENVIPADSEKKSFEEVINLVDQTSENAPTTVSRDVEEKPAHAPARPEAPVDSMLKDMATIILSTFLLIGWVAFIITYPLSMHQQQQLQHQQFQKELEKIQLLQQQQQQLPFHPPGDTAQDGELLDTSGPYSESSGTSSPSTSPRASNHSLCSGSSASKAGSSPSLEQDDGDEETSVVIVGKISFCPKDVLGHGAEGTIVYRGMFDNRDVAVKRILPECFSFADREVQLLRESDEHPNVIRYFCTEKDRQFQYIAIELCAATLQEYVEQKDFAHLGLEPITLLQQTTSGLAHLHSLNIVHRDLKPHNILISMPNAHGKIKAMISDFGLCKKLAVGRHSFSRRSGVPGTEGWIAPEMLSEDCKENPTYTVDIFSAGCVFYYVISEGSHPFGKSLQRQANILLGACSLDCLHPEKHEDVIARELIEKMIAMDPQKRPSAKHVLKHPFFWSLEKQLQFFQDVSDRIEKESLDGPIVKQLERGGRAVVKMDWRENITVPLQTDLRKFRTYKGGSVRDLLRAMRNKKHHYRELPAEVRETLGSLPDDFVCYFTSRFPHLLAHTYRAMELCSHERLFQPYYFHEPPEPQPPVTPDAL
Chain of FGFR3(G697C) (P22607 whole entry G697C): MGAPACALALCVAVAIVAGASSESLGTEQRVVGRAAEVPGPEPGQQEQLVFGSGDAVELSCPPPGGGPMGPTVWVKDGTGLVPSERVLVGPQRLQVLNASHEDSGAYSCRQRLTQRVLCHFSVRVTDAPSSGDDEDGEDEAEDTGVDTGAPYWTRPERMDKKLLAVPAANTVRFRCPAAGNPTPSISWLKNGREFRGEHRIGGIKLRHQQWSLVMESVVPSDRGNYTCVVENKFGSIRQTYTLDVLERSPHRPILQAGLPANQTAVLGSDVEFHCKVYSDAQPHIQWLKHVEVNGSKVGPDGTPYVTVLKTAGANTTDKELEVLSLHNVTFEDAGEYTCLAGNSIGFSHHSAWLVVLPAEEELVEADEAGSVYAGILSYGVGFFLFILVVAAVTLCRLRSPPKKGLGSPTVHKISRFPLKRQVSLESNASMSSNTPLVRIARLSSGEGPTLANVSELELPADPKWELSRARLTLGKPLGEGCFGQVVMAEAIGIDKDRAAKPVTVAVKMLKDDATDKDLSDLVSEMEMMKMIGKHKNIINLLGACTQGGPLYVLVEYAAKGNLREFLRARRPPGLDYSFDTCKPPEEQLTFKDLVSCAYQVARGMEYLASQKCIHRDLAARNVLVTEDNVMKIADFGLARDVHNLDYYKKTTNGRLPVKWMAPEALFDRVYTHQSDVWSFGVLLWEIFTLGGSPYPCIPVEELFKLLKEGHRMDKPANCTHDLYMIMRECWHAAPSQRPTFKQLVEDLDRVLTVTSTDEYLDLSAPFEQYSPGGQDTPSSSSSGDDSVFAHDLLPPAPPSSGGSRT
T3 sequence (P31152 whole entry): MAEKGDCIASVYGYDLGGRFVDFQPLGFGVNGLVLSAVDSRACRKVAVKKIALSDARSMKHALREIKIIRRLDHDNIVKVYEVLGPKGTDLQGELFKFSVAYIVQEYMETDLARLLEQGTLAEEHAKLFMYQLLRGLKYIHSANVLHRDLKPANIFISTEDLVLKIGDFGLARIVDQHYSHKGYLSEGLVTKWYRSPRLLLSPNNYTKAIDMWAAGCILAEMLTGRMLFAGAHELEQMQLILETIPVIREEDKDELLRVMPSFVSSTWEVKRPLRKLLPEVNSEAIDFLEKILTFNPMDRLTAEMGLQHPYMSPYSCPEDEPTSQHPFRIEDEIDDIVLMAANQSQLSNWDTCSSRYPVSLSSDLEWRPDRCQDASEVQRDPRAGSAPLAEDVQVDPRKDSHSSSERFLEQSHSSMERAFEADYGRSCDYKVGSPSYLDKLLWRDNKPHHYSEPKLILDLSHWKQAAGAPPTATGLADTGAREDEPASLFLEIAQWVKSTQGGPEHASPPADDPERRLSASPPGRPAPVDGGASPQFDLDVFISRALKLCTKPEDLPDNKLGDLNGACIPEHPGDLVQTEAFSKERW
T1 sequence (Q9NY57 whole entry): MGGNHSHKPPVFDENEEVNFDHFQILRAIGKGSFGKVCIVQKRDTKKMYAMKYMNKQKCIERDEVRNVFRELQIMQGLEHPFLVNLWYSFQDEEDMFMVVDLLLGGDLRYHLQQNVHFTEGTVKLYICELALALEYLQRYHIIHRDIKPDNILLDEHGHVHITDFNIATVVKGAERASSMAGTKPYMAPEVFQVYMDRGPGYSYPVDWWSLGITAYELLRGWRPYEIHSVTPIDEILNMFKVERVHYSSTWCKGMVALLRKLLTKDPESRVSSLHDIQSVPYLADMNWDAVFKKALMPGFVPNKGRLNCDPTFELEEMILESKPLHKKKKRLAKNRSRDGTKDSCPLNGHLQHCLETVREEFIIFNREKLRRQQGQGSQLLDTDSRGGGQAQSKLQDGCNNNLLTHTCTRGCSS

percent of control binding at 10 µM [1, 11]: 86% | percent of control binding at 10 µM [2, 11]: 94% | percent of control binding at 10 µM [3, 11]: 94% | percent of control binding at 10 µM [4, 11]: 100% | percent of control binding at 10 µM [5, 11]: 98% | percent of control binding at 10 µM [6, 11]: 100% | percent of control binding at 10 µM [7, 11]: 90% | percent of control binding at 10 µM [8, 11]: 92% | percent of control binding at 10 µM [9, 11]: 90% | percent of control binding at 10 µM [10, 11]: 88%
SMILES: O=C(c1cc(Cc2n[nH]c(=O)c3ccccc23)ccc1F)N1CCN(C(=O)C2CC2)CC1 [Olaparib]

percent of control binding at 10 µM [1, 12]: 100% | percent of control binding at 10 µM [2, 12]: 91% | percent of control binding at 10 µM [3, 12]: 98% | percent of control binding at 10 µM [4, 12]: 100% | percent of control binding at 10 µM [5, 12]: 92% | percent of control binding at 10 µM [6, 12]: 100% | percent of control binding at 10 µM [7, 12]: 93% | percent of control binding at 10 µM [8, 12]: 98% | percent of control binding at 10 µM [9, 12]: 94% | percent of control binding at 10 µM [10, 12]: 91%
SMILES: Cn1ncnc1[C@H]1c2n[nH]c(=O)c3cc(F)cc(c23)N[C@@H]1c1ccc(F)cc1 [Talazoparib]

percent of control binding at 10 µM [1, 13]: 68% | percent of control binding at 10 µM [2, 13]: 100% | percent of control binding at 10 µM [3, 13]: 100% | percent of control binding at 10 µM [4, 13]: 97% | percent of control binding at 10 µM [5, 13]: 100% | percent of control binding at 10 µM [6, 13]: 100% | percent of control binding at 10 µM [7, 13]: 91% | percent of control binding at 10 µM [8, 13]: 82% | percent of control binding at 10 µM [9, 13]: 76% | percent of control binding at 10 µM [10, 13]: 75%
SMILES: CNCc1ccc(-c2[nH]c3cc(F)cc4c3c2CCNC4=O)cc1 [Rucaparib]

SMILES: NC(=O)c1cccc2cn(-c3ccc([C@@H]4CCCNC4)cc3)nc12 [Niraparib]
percent of control binding at 10 µM [1, 14]: 100% | percent of control binding at 10 µM [2, 14]: 100% | percent of control binding at 10 µM [3, 14]: 99% | percent of control binding at 10 µM [4, 14]: 98% | percent of control binding at 10 µM [5, 14]: 90% | percent of control binding at 10 µM [6, 14]: 95% | percent of control binding at 10 µM [7, 14]: 100% | percent of control binding at 10 µM [8, 14]: 97% | percent of control binding at 10 µM [9, 14]: 70% | percent of control binding at 10 µM [10, 14]: 100%
